How the values were obtained:
[1] = test system: Mycobacterium tuberculosis Erdman (pMV306hsp+LuxG13); test: AUC25, normalised area under the dose-response curve up to IC25 (normalised AUC (unitless)); higher = more potent
Procedure: (§1)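 DiaMOND pairwise dose responses of an equipotent two-drug mixture (1.5-fold, 10-dose series) against autoluminescent M. tuberculosis Erdman in 384-well plates. Growth inhibition was read by OD600 (luminescence for dormancy) in seven media at a constant and a terminal time point; metrics are means of at least biological duplicates. Einf and AUC25 higher = more potent; GRinf lower = more potent; log2FIC negative = synergy.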

[2] = test system: Mycobacterium tuberculosis Erdman (pMV306hsp+LuxG13); test: Einf, effect of the drug pair at infinite dose (maximum growth inhibition) (fraction inhibition (0-1)); higher = more potent; extreme values may be limits of the assay
Procedure: as §1

[3] = test system: Mycobacterium tuberculosis Erdman (pMV306hsp+LuxG13); test: log2 fractional inhibitory concentration at 50% inhibition (log2 FIC); higher = more antagonistic
Procedure: as §1

[4] = test system: Mycobacterium tuberculosis Erdman (pMV306hsp+LuxG13); test: log2 fractional inhibitory concentration at 90% inhibition (log2 FIC); higher = more antagonistic
Procedure: as §1

[5] = test system: Mycobacterium tuberculosis Erdman (pMV306hsp+LuxG13); test: GRinf, normalised growth-rate inhibition at infinite dose (GR value (unitless, negative = killing)); higher = less potent
Procedure: as §1

CC[C@@H](CO)NCCN[C@@H](CC)CO [ethambutol] + CC(C)=CCC/C(C)=C/CNCCNC1C2CC3CC(C2)CC1C3 [SQ109]
Conditions	AUC25, [1]	Einf, [2]	GRinf, [5]	log2 fractional inhibitory concentration, [3]	log2 fractional inhibitory concentration, [4]
growth medium: butyrate 5 mM, time point: constant time point	0.0766	0.886	0.0457	0.614	–
growth medium: butyrate 5 mM, time point: terminal time point	0.0668	0.937	0.0593	0.497	0.586
growth medium: cholesterol 0.05 mM, time point: constant time point	0.0769	0.732	-0.435	0.488	–
growth medium: cholesterol 0.2 mM (cholesterol-high), time point: constant time point	0.0635	1	-0.949	0.679	0.489
growth medium: cholesterol 0.2 mM (cholesterol-high), time point: terminal time point	0.0641	1	-0.86	0.546	0.354
growth medium: standard 7H9 OADC glycerol, time point: constant = terminal time point (4.2 d)	0.0512	0.843	0.238	0.0946	–
growth medium: valerate 0.1%, time point: constant time point	0.0745	0.902	0.155	0.751	0.158
growth medium: valerate 0.1%, time point: terminal time point	0.0778	0.9	0.175	0.656	0.34

growth medium: hypoxic dormancy (butyrate + nitrate), then recovery
Conditions	AUC25, [1]	Einf, [2]	GRinf, [5]	log2 fractional inhibitory concentration, [3]	log2 fractional inhibitory concentration, [4]
time point: constant time point	0.0928	0.988	-0.333	-0.601	-0.745
time point: terminal time point	0.0578	0.96	0.144	0.71	–

NNC(=O)c1ccncc1 [isoniazid] + CC(=O)NC[C@H]1CN(c2ccc(N3CCSCC3)c(F)c2)C(=O)O1 [sutezolid]
Conditions	AUC25, [1]	Einf, [2]	GRinf, [5]	log2 fractional inhibitory concentration, [3]	log2 fractional inhibitory concentration, [4]
growth medium: acidic pH 5.7, glycerol, time point: constant time point	0.0914	0.846	-0.123	0.123	–
growth medium: acidic pH 5.7, glycerol, time point: terminal time point	0.0816	0.972	-0.174	0.103	-0.00954
growth medium: butyrate 5 mM, time point: constant time point	0.0778	0.901	0.0944	0.357	–
growth medium: butyrate 5 mM, time point: terminal time point	0.0468	0.944	0.104	0.264	0.0935
growth medium: cholesterol 0.05 mM, time point: constant time point	0.026	0.988	-0.536	0.559	-0.209
growth medium: cholesterol 0.05 mM, time point: terminal time point	0.113	1	-1	0.493	0.0381
growth medium: cholesterol 0.2 mM (cholesterol-high), time point: constant time point	0.0844	0.994	-0.83	0.0991	0.448
growth medium: cholesterol 0.2 mM (cholesterol-high), time point: terminal time point	0.119	1	-0.942	-0.302	0.592
growth medium: standard 7H9 OADC glycerol, time point: constant = terminal time point (4.2 d)	0.0428	0.956	0.0933	-0.00832	-0.586
growth medium: valerate 0.1%, time point: constant time point	0.0744	0.872	-0.342	1.2	–
growth medium: valerate 0.1%, time point: terminal time point	0.0761	0.982	-0.0769	0.633	0.724

growth medium: hypoxic dormancy (butyrate + nitrate), then recovery
Conditions	AUC25, [1]	Einf, [2]	GRinf, [5]	log2 fractional inhibitory concentration, [3]	log2 fractional inhibitory concentration, [4]
time point: constant time point	0.0513	0.987	0.3	0.243	-0.281
time point: terminal time point	0.0273	0.958	0.448	0.741	-0.485

NNC(=O)c1ccncc1 [isoniazid] + CC(C)=CCC/C(C)=C/CNCCNC1C2CC3CC(C2)CC1C3 [SQ109]
Conditions	AUC25, [1]	Einf, [2]	GRinf, [5]	log2 fractional inhibitory concentration, [3]	log2 fractional inhibitory concentration, [4]
growth medium: butyrate 5 mM, time point: constant time point	0.0624	0.897	0.0429	0.35	–
growth medium: butyrate 5 mM, time point: terminal time point	0.0434	0.944	0.0572	0.29	0.00828
growth medium: cholesterol 0.05 mM, time point: constant time point	0.1	0.84	-0.682	1.02	–
growth medium: cholesterol 0.2 mM (cholesterol-high), time point: constant time point	0.0635	0.999	-0.997	0.5	0.434
growth medium: cholesterol 0.2 mM (cholesterol-high), time point: terminal time point	0.0743	1	-0.87	0.189	0.311
growth medium: standard 7H9 OADC glycerol, time point: constant = terminal time point (4.2 d)	0.0551	0.858	0.218	0.45	–
growth medium: valerate 0.1%, time point: constant time point	0.0611	0.964	-0.00837	0.052	0.14
growth medium: valerate 0.1%, time point: terminal time point	0.0646	0.968	-0.0113	0.109	0.00427

growth medium: hypoxic dormancy (butyrate + nitrate), then recovery
Conditions	AUC25, [1]	Einf, [2]	GRinf, [5]	log2 fractional inhibitory concentration, [3]	log2 fractional inhibitory concentration, [4]
time point: constant time point	0.0841	0.994	-0.408	-0.42	0.0195
time point: terminal time point	0.0403	0.96	0.13	-0.641	-0.76

COc1c(N2C[C@@H]3CCCN[C@@H]3C2)c(F)cc2c(=O)c(C(=O)O)cn(C3CC3)c12 [moxifloxacin] + CC(=O)NC[C@H]1CN(c2ccc(N3CCSCC3)c(F)c2)C(=O)O1 [sutezolid]
Conditions	AUC25, [1]	Einf, [2]	GRinf, [5]	log2 fractional inhibitory concentration, [3]	log2 fractional inhibitory concentration, [4]
growth medium: acidic pH 5.7, glycerol, time point: constant time point	0.153	0.884	-0.618	-0.766	–
growth medium: acidic pH 5.7, glycerol, time point: terminal time point	0.126	0.994	-0.27	-0.628	0.0336
growth medium: butyrate 5 mM, time point: constant time point	0.0856	0.921	0.0433	2.18	–
growth medium: butyrate 5 mM, time point: terminal time point	0.0636	0.96	0.0229	1.99	2.06
growth medium: cholesterol 0.05 mM, time point: constant time point	0.0609	0.744	-0.918	0.274	–
growth medium: cholesterol 0.2 mM (cholesterol-high), time point: constant time point	0.0941	1	-0.886	-0.358	-0.0409
growth medium: cholesterol 0.2 mM (cholesterol-high), time point: terminal time point	0.12	1	-0.872	-0.612	0.362
growth medium: standard 7H9 OADC glycerol, time point: constant = terminal time point (4.2 d)	0.0573	0.969	0.0204	-0.0683	-0.545
growth medium: valerate 0.1%, time point: constant time point	0.097	0.857	-0.0498	0.387	–
growth medium: valerate 0.1%, time point: terminal time point	0.0564	0.963	-0.0149	0.257	-0.156

growth medium: hypoxic dormancy (butyrate + nitrate), then recovery
Conditions	AUC25, [1]	Einf, [2]	GRinf, [5]	log2 fractional inhibitory concentration, [3]	log2 fractional inhibitory concentration, [4]
time point: constant time point	0.0806	0.95	0.218	0.0759	-1.18
time point: terminal time point	0.0478	0.902	0.508	0.726	0.502
